For assay [1], the system named is male mice of ddN strain. In words: animal or person. To be noted: Mus musculus, read-out: D'Amour-Smith method, analgesic ED50. In kind it is in vivo.
The subject of assay [2] is female mice of ddN strain. To be noted: mouse, in vivo.
The test system of assay [3] is male rats of Wistar strain. In words: animal or person. In kind it is in vivo. Conditions: Rattus norvegicus, po, read-out: Haffner method, analgesic ED50.

Where two headings read alike, the source gives them in different places.

As for `Cc1c(N(C)C)c(=O)n(-c2ccccc2)n1C` [compound 5, Aminopyrine], the ED50 in assay [1] (po) is no less than 640 mg/kg; in assay [1] (sc), 233 mg/kg; in assay [3], greater than 2560 mg/kg. Besides, the “Phenylquinone method (analgesic activity)” value in assay [2] is 53.3.

A word on the ED50: it is the dose at which the effect has come halfway, by size or by number of responders.

Source of the values: patent US3957788A (priority 1974, dated 1976).
